Results on two compounds are retold here after US10500142B2, “Oral care compositions” (COLGATE-PALMOLIVE COMPANY, priority 2015, dated 2019).

The nature of data set [1]: SnCl2.2H2O/pyrophosphate solutions: appearance on preparation and aging at room temperature. It counts as physicochemical. The conditions noted are these: 3% SnCl2.2H2O; aged overnight at room temperature. How it is done: Solutions are prepared by dissolving TSPP in deionized water (mixing under heat if necessary) and then adding 0.6 g of SnCl2.2H2O to make 20-gram solutions.
The solutions with a P/Sn molar ratio spanning from 0.5 to 5 containing 3% SnCl2.2H2O are aged overnight at room temperature. A 3% SnCl2.2H2O solution is used as a control.
Solutions are prepared by dissolving TKPP in deionized water (mixing under heat if necessary) and then adding 0.6 g SnCl2.2H2O to make 20-g solutions.

Data set [2] is described as follows: Solution preparation: clarity / dissolution of SnF2 with TSPP or TKPP in water. The data set is classed as physicochemical. The settings on record: 2% SnF2 in water with TSPP or TKPP; as prepared. The procedure: The solutions are prepared by first dissolving TSPP or TKPP in water (mixing under high heat if necessary) and then adding a 20% stannous fluoride solution to the clear solution with an automatic pipet. […] All of the solutions contain 2% SnF2.

For the compound `O.O.[Cl][Sn][Cl]` [3% SnCl2.2H2O solution, SnCl2.2H2O], in data set [1], the “appearance after aging overnight” value was “cloudy precipitate that settles”. Turning to `[F][Sn][F]` [2% stannous fluoride solution, stannous fluoride], the “appearance / dissolution of the solution on preparation” value in data set [2] is given as “precipitate almost immediately after dissolution”.
